Measurements: PMC6359675, “Functionalization of the Chalcone Scaffold for the Discovery of Novel Lead Compounds Targeting Fungal Infections” (Molecules, 2019)
Where two headings read alike, the source gives them in different places.

Assays:
[1] = tested on: C. albicans ATCC 10231; assay: In vitro susceptibility testing, microdilution broth (EUCAST), C. albicans control strain; format: cell-based, Candida albicans; details: for inhibition at 100 µM: ATCC10231, 24 h; for antifungal activity against C. albicans growth, in words: screen at 100 μM; for IC50: mean and 95% confidence interval
Description: The in vitro antifungal activity of the chalcones was evaluated by a microdilution broth method in accordance with the guidelines provided by the EUCAST Edef 7.3 [22]. Briefly, all strains were cultured on Sabauraud dextrose, then inocula, prepared at 0.5 McFarland, were diluted 1:20 in RPMI-1640 medium (Gibco®, ThermoFisher Scientific Inc., Waltham, MA, USA), containing glucose 2%, 0.3% levo-glutamine buffered to pH 7.0 with 0.165 M 3-(N-morpholino)propanesulfonic acid (MOPS) to yield 1-5 × 10^5 cells/mL. A total of 100 µL of the yeast suspension was inoculated in a 96-well microplate and incubated with 100 µL of serially 2-fold dilution of the compound in the range 200–6.25 µM. The following controls were included: yeast suspensions incubated in RPMI-1640 culture medium (positive growth control), or supplemented with dilutions of DMSO, or fluconazole (Sigma-Aldrich, St. Louis, MO, USA) as a commercial drug. To check the background turbidity of reagents and the sterility of the procedure, dilutions of each compound were incubated in RPMI-1640 culture medium, without yeast inoculum. The inoculated plate was incubated at 37 °C for 24 h, and subsequently the optical density at 630 nm was measured by the Multiskan Ascent microplate reader (Thermo Fisher Scientific Inc.). The effectiveness of the compounds was expressed as percent inhibition relative to the positive growth control when the inhibition […] the 50% at 100 µM. The IC50 value was determined by interpolation of the dose–response curves generated by plotting the percentages of growth inhibition, relative to the drug-free control (set to 100% of growth), as a function of the tested concentrations (on a logarithm scale). Statistical analysis was carried out by the nonlinear regression method using GraphPad Prism version 5.0 for Windows (GraphPad Software, San Diego, CA, USA). All assays were performed in triplicate and at least two independent experiments were carried out.

[2] = Cytotoxicity test on Vero cells (WST8/CCK-8 cell viability); format: cell-based, African green monkey; details: African green monkey, Vero cells (ATCC CCL-81), Vero cells, mean and 95% confidence interval
Description: African green monkey kidney cells (Vero ATCC CCL-81) were cultured in Eagle’s Minimal Essential Medium (MEM) (Sigma-Aldrich), supplemented with 10% fetal bovine serum (FBS) (Carlo Erba Reagents, Milan, Italy), 100 U/mL penicillin, and 100 µg/mL streptomycin at 37 °C with 5% CO2. For experiments, cells were seeded into 96-well plates at 10^4 cells/well, and incubated at 37 °C for 24 h. Following washes with PBS, cell monolayer was incubated with 100 µL of serially 2-fold dilution of the compound in the range 200–6.25 µM. Both untreated cells and cells incubated with medium containing solvent dilutions were included in each experiment as controls.
The cell viability was assessed by a WST8-based assay according to the manufacturer’s instructions (CCK-8, Cell Counting Kit-8, Dojindo Molecular Technologies, Rockville, MD, USA). After 72 h of incubation, culture medium was removed from each well, the monolayer was washed with PBS, and 100 µL of fresh medium containing 10 µL of CCK-8 solution were added. Following a 2 h at 37 °C, the absorbance was measured at 450/630 nm; data were calculated as the percentage of the cell viability relative to the untreated controls.

[3] = Candida albicans, C. albicans ATCC 10231
[4] = Candida albicans, ATCC10231, C. albicans ATCC 10231, read-out: IC50
[5] = Candida albicans, ATCC10231, C. albicans ATCC 10231, read-out: IC50 [μg/mL]
[6] = C. albicans ATCC 10231, read-out: IC50

O=C(/C=C/c1ccccc1F)c1cc(Cl)ccc1O [Compound 2, (E)-1-(5-Chloro-2-hydroxyphenyl)-3-(2-fluorophenyl)prop-2-en-1-one]
inhibition at 100 µM [1, 3]: 35.8 ± 1.1%

CN(C)c1ccc(/C=C/C(=O)c2cc(Cl)ccc2O)cc1 [Compound 6, (E)-1-(5-chloro-2-hydroxyphenyl)-3-(4-(dimethylamino)phenyl)prop-2-en-1-one]
inhibition at 100 µM [1, 3]: < 1%
antifungal activity against C. albicans growth, in words ([1]; C. albicans ATCC 10231): inactive

O=C(/C=C/c1ccc(F)cc1)c1cc(F)ccc1O [Compound 8, (E)-1-(5-Fluoro-2-hydroxyphenyl)-3-(4-fluorophenyl)prop-2-en-1-one]
inhibition at 100 µM [1, 3]: < 1%

CN(C)c1ccc(/C=C/C(=O)c2cc(F)ccc2O)cc1 [Compound 9, (E)-3-(4-(Dimethylamino)phenyl)-1-(5-fluoro-2-hydroxyphenyl)prop-2-en-1-one]
inhibition at 100 µM [1, 3]: 38.5 ± 2.9%

C#CCOc1ccc(C(=O)/C=C/c2ccc(F)cc2)c(OC)c1 [Compound 10, (E)-3-(4-fluorophenyl)-1-(2-methoxy-4-(prop-2-yn-1-yloxy)phenyl)prop-2-en-1-one]
inhibition at 100 µM [1, 3]: 23.3 ± 9.6%

C#CCOc1ccc(C(=O)/C=C/c2ccc(Cl)cc2Cl)c(OC)c1 [Compound 11, (E)-3-(2,4-dichlorophenyl)-1-(2-methoxy-4-(prop-2-yn-1-yloxy)phenyl)prop-2-en-1-one]
inhibition at 100 µM [1, 3]: 9.8 ± 6.7%
antifungal activity against C. albicans growth, in words ([1]; C. albicans ATCC 10231): inactive
melting point: 174 to 175 °C

C#CCOc1ccc(C(=O)/C=C/c2cccnc2)c(OC)c1 [Compound 12]
CC50 at 72 h ([2]; read-out: CC50): 13.6 µM
CC50 at 72 h ([2]; read-out: CC50 [μg/mL]): 4 µg/mL
IC50 [1, 4]: 30.7 µM
IC50 [1, 5]: 9 µg/mL
inhibition at 100 µM [1, 3]: > 99%

C#CCOc1ccc(C(=O)/C=C/c2ccncc2)c(OC)c1 [Compound 13]
CC50 at 72 h ([2]; read-out: CC50): 7.3 µM
CC50 at 72 h ([2]; read-out: CC50 [μg/mL]): 2.1 µg/mL
IC50 [1, 4]: 8.1 µM
IC50 [1, 5]: 2.4 µg/mL
inhibition at 100 µM [1, 3]: > 99%

C#CCOc1ccc(C(=O)/C=C/c2ccc(N(C)C)cc2)c(OC)c1 [Compound 15, (E)-3-(4-(dimethylamino)phenyl)-1-(2-methoxy-4-(prop-2-yn-1-yloxy)phenyl)prop-2-en-1-one]
inhibition at 100 µM [1, 3]: < 1%
antifungal activity against C. albicans growth, in words ([1]; C. albicans ATCC 10231): inactive

C#CCOc1ccc(C(=O)/C=C/c2cccnc2)c(O)c1 [Compound 16]
CC50 at 72 h ([2]; read-out: CC50): 17.8 µM
CC50 at 72 h ([2]; read-out: CC50 [μg/mL]): 5.2 µg/mL
IC50 [1, 4]: 10.8 µM
IC50 [1, 5]: 3.2 µg/mL
inhibition at 100 µM [1, 3]: 91.9 ± 8.2%

C#CCOc1ccc(C(=O)/C=C/c2ccc(N(C)C)cc2)c(O)c1 [Compound 17, (E)-3-(4-(dimethylamino)phenyl)-1-(2-hydroxy-4-(prop-2-yn-1-yloxy)phenyl)prop-2-en-1-one]
inhibition at 100 µM [1, 3]: 11 ± 3.9%
antifungal activity against C. albicans growth, in words ([1]; C. albicans ATCC 10231): inactive

COc1cc(OCC=C(C)C)ccc1C(=O)/C=C/c1ccc(F)cc1 [Compound 18]
inhibition at 100 µM [1, 3]: 34.1 ± 7.5%

CC(C)=CCOc1ccc(C(=O)/C=C/c2ccc(Cl)cc2Cl)c(O)c1 [Compound 19, (E)-3-(2,4-dichlorophenyl)-1-(2-hydroxy-4-((3-methylbut-2-en-1-yl)oxy)phenyl)prop-2-en-1-one]
inhibition at 100 µM [1, 3]: 5.9 ± 5.7%
antifungal activity against C. albicans growth, in words ([1]; C. albicans ATCC 10231): inactive
melting point: 191 to 193 °C

CC(C)=CCOc1ccc(C(=O)/C=C/c2ccncc2)c(O)c1 [Compound 21]
CC50 at 72 h ([2]; read-out: CC50): 14.8 µM
CC50 at 72 h ([2]; read-out: CC50 [μg/mL]): 4.3 µg/mL
IC50 [1, 4]: 12.6 µM
IC50 [1, 5]: 3.7 µg/mL
inhibition at 100 µM [1, 3]: 96.5 ± 1.4%

C#CCOc1ccc(C(=O)/C=C/c2ccc(F)cc2)c(OCC#C)c1 [Compound 22]
inhibition at 100 µM [1, 3]: < 1%
antifungal activity against C. albicans growth, in words ([1]; C. albicans ATCC 10231): inactive

C#CCOc1ccc(C(=O)/C=C/c2cccnc2)c(OCC#C)c1 [Compound 24]
CC50 at 72 h ([2]; read-out: CC50): 13 µM
CC50 at 72 h ([2]; read-out: CC50 [μg/mL]): 3.8 µg/mL
IC50 [1, 6]: 43.8 µM
IC50 [1, 4]: 26.3 µM
IC50 [1, 5]: 12.8 µg/mL
inhibition at 100 µM [1, 3]: 72 ± 9.8%

C#CCOc1ccc(C(=O)/C=C/c2ccncc2)c(OCC#C)c1 [Compound 25]
CC50 at 72 h ([2]; read-out: CC50): 9.1 µM
CC50 at 72 h ([2]; read-out: CC50 [μg/mL]): 2.7 µg/mL
IC50 [1, 6]: 26.3 µM
IC50 [1, 4]: 43.8 µM
IC50 [1, 5]: 7.7 µg/mL
inhibition at 100 µM [1, 3]: 81.3 ± 17%

C#CCOc1ccc(C(=O)/C=C/c2ccc([N+](=O)[O-])cc2)c(OCC#C)c1 [Compound 26]
CC50 at 72 h ([2]; read-out: CC50): 5.1 µM
CC50 at 72 h ([2]; read-out: CC50 [μg/mL]): 1.5 µg/mL
IC50 [1, 4]: 36.8 µM
IC50 [1, 5]: 10.8 µg/mL
inhibition at 100 µM [1, 3]: 63.9 ± 3.4%

C#CCOc1ccc(C(=O)/C=C/c2ccc(N(C)C)cc2)c(OCC#C)c1 [Compound 27, (E)-1-(2,4-bis(prop-2-yn-1-yloxy)phenyl)-3-(4-(dimethylamino)phenyl)prop-2-en-1-one]
inhibition at 100 µM [1, 3]: < 1%
antifungal activity against C. albicans growth, in words ([1]; C. albicans ATCC 10231): inactive

COc1cc(O)ccc1C(=O)/C=C/c1ccc(F)cc1 [Compound 29, (E)-3-(4-Fluorophenyl)-1-(4-hydroxy-2-methoxyphenyl)prop-2-en-1-one]
inhibition at 100 µM [1, 3]: 17.8 ± 4.1%
antifungal activity against C. albicans growth, in words ([1]; C. albicans ATCC 10231): poor inhibition

COc1cc(OCc2cn(CCO)nn2)ccc1C(=O)/C=C/c1ccc(F)cc1 [Compound 30, (E)-3-(4-fluorophenyl)-1-(4-((1-(2-hydroxyethyl)-1H-1,2,3-triazol-4-yl)methoxy)-2-methoxyphenyl)prop-2-en-1-one]
inhibition at 100 µM [1, 3]: 9.5 ± 4.8%
antifungal activity against C. albicans growth, in words ([1]; C. albicans ATCC 10231): inactive

O=C(/C=C/c1ccc(F)cc1)c1ccc(OCCO)cc1 [Compound 31, (E)-3-(4-fluorophenyl)-1-(4-(2-hydroxyethoxy)phenyl)prop-2-en-1-one]
CC50 at 72 h ([2]; read-out: CC50): 8.3 µM
CC50 at 72 h ([2]; read-out: CC50 [μg/mL]): 2.4 µg/mL
IC50 [1, 4]: 12 µM
IC50 [1, 5]: 3.5 µg/mL
inhibition at 100 µM [1, 3]: 97.3 ± 0.5%

CC(C)=CCOc1ccc(C(=O)/C=C/c2ccc(N(C)C)cc2)cc1 [Compound 35, (E)-3-(4-(dimethylamino)phenyl)-1-(4-((3-methylbut-2-en-1-yl)oxy)phenyl)prop-2-en-1-one]
inhibition at 100 µM [1, 3]: 13.9 ± 3.6%
antifungal activity against C. albicans growth, in words ([1]; C. albicans ATCC 10231): inactive

C#CCOc1ccc(C(=O)/C=C/c2ccc(N(C)C)cc2)cc1 [Compound 39, (E)-3-(4-(dimethylamino)phenyl)-1-(4-(prop-2-yn-1-yloxy)phenyl)prop-2-en-1-one]
inhibition at 100 µM [1, 3]: < 1%
antifungal activity against C. albicans growth, in words ([1]; C. albicans ATCC 10231): inactive

C#CCOc1ccc2c(c1)O/C(=C\c1cccnc1)C2=O [Compound 40, (Z)-6-(prop-2-yn-1-yloxy)-2-(pyridin-3-ylmethylene)benzofuran-3(2H)-one]
inhibition at 100 µM [1, 3]: < 1%
antifungal activity against C. albicans growth, in words ([1]; C. albicans ATCC 10231): loss in activity
